Assay results from US20110312015A1, “RAPID THROMBOCHEK TEST KIT BASED ON WHOLE BLOOD SCREENING TEST TO DETECT PLATELET HYPERAGGREGATION AT A TEMPERATURE OF 37ºC IN THE CLINICAL LABORATORY” (priority 2008, published 2011).
Where two headings read alike, the source gives them in different places.

What was measured:
hyperactive platelets = experiment: Assessment of efficacy of antiplatelet treatment in patients by Rapid Thrombochek test and microscopic method; format: in vivo, human; conditions: twenty myocardial infarction patients on daily aspirin for minimum 3 weeks; both methods
Experimental: Tests were carried out on healthy adults (male and female) and the normals were established. The test was carried out on patients of diabetes mellitus and known cases of myocardial infarction. […] All the smears were prepared by taking a drop of blood on slide and making a smear by cover slide method of smear preparation. All the smears were fixed in alcohol after drying and stained with […] stain and examined under oil immersion lense. Platelets free and in aggregates were counted and percentage of aggregation was worked out. TWENTY PATIENTS OF MYOCARDIAL INFARCTION ON DAILY ASPIRIN FOR MINIMUM PERIOD OF 3 WEEKS WERE TESTED BY […] WELL AS BY MICROSCOPIC METHOD FOR ASSESSMENT OF EFFICACY OF ANTIPLATELET TREATMENT.

platelets in whole blood = conditions: 0.5 uM Epinephrine, 180 seconds
Experimental: Collecting a blood sample from an individual in EDTA anticoagulant vacutainer first and then taking blood in trisodium citrate-anticoagulant vacutainer with the same venipuncture and mixing both the samples with the respective anticoagulants at least 15 to 20 times by inversion and allowing EDTA sample to stand at room temperature for a minimum of 20 minutes and then within two hours of collection, the EDTA sample is analysed on an automated hematology analyser to determine the platelet count and appropriate aliquote of citrate sample is taken in a plastic cuvette with a magnetic bar and stirred for 3 minutes at 37° C. and a weak agonist of platelet aggregation in low concentration is added to stirred citrate sample and further stirred for another three minutes at 37° C. At the end of these last three minutes the stirred citrate agonist treated sample is analysed on an hematology analyser for platelet count. Difference between EDTA platelet count and agonist treated stirred citrate platelet count, percentage of platelet aggregation is calculated by dividing the difference by EDTA platelet count and multiplying it by 100.
All samples were collected in the morning when the subjects were fasting. Blood was collected in Plain vaccutainer then EDTA vacutainer by a clean venipuncture using a 20 G needle and then in the 3.8% Na citrate (1:10 dil) vacutainer. Both these anticoagulated blood samples were thoroughly mixed with respective anticoagulants by inversion (15 to 20 times) and the EDTA sample was made to stand at room temperature for 20 minutes after collection and only then analysed for platelet count measurements on the automated hematology analyser. Both samples were analysed within two hours of collection. […]

platelets = experiment: Platelet aggregation in blood anticoagulated with D-Phe-Pro-Arg chloromethyl ketone dihydrochloride; format: cell-based; conditions: aggregation caused by addition of agonist
From the text: Heparin, Na Citrate 3.2% can also be used instead of citrate 3.8% as anticoagulant to study platelet hyperaggregation.

## CC(=O)Oc1ccccc1C(=O)O [ASPIRIN, Aspirin]
Hyperactive platelets
  Efficacy of antiplatelet treatment (hyperactive platelets above normal range): LESS THAN EFFECTIVE IN FOUR OF THEM

## CNC[C@H](O)c1ccc(O)c(O)c1 [Epinephrine, Epinephrine bitartrate]
Platelets in whole blood; Diabetes patients
  Platelet Aggregation % at 180 sec. at 37° C., mean (SD): 35 (12) %
Platelets in whole blood; MI (myocardial infarction) patients
  Platelet Aggregation % at 180 sec. at 37° C., mean (SD): 29 (11) %
Platelets in whole blood; Normal group (healthy adults)
  Platelet Aggregation % at 180 sec. at 37° C., mean (SD): 14.5 (7) %

## D-Phe-Pro-Arg chloromethyl ketone dihydrochloride
platelets
  Effect on agonist-induced platelet aggregation when used as anticoagulant: substantial disaggregation of platelet aggregation
